Results on 15 compounds are retold here after US20090318412A1, “Tricyclic heterocyclic compound and use thereof” (priority 2006, published 2009).

Counter-ions that a name gives are not always drawn.

serotonin 5-HT2C receptor, sequence (P28335 33-458 I156V/N158S/I160V limits assumed): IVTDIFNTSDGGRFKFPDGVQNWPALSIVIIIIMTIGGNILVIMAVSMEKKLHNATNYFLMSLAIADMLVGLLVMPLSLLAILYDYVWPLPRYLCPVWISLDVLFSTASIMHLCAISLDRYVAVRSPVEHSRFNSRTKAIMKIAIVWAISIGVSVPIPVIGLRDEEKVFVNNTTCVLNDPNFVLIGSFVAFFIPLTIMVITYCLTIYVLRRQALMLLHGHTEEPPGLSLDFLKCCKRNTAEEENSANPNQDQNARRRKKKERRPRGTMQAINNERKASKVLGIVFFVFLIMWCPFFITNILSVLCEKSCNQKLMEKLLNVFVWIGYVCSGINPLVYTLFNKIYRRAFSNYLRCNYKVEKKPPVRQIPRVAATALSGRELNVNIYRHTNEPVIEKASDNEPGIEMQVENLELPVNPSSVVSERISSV

The experiment concerns the target serotonin 5-HT2C receptor (Homo sapiens, UniProt P28335, I156V/I160V/N158S). Description: cell-based. The settings on record: CHO, read-out: ratio to maximum response by 5-HT.
With `O=C1c2ccccc2OCC2CNCCN12` (stereo not drawn) [Example 1, 1,2,3,4,12,12a-hexahydro-6H-pyrazino[2,1-c][1,4]benzoxazepin-6-one hydrochloride], the Emax amounted to 114%.
`c1ccc2c(c1)CN1CCNCC1CO2` (stereo not drawn) [Example 2, 1,2,3,4,12,12a-hexahydro-6H-pyrazino[2,1-c][1,4]benzoxazepine dihydrochloride]: the Emax is 116%.
As for `O=C1c2cccc(Cl)c2OCC2CNCCN12` (stereo not drawn) [Example 3, 10-chloro-1,2,3,4,12,12a-hexahydro-6H-pyrazino[2,1-c][1,4]benzoxazepin-6-one hydrochloride], the Emax amounted to 98.2%.
Consider `O=C1c2c(Cl)cccc2OCC2CNCCN12` (stereo not drawn) [Example 4, 7-chloro-1,2,3,4,12,12a-hexahydro-6H-pyrazino[2,1-c][1,4]benzoxazepin-6-one hydrochloride], for which the Emax was determined as 94.6%.
The value for `O=C1c2ccc(Cl)cc2OCC2CNCCN12` (stereo not drawn) [Example 5, 9-chloro-1,2,3,4,12,12a-hexahydro-6H-pyrazino[2,1-c][1,4]benzoxazepin-6-one hydrochloride] was 101%; that for `O=C1c2cc(Cl)ccc2OCC2CNCCN12` (stereo not drawn) [Example 6, 8-chloro-1,2,3,4,12,12a-hexahydro-6H-pyrazino[2,1-c][1,4]benzoxazepin-6-one hydrochloride] was 99.4%; that for `Clc1ccc2c(c1)CN1CCNCC1CO2` (stereo not drawn) [Example 7, 8-chloro-1,2,3,4,12,12a-hexahydro-6H-pyrazino[2,1-c][1,4]benzoxazepine dihydrochloride] was 107%.
As to `O=C1c2cc(C(F)(F)F)ccc2OCC2CNCCN12` (stereo not drawn) [Example 8, 8-(trifluoromethyl)-1,2,3,4,12,12a-hexahydro-6H-pyrazino[2,1-c][1,4]benzoxazepin-6-one hydrochloride], the Emax turned out to be 96.5%.
On to `FC(F)(F)c1ccc2c(c1)CN1CCNCC1CO2` (stereo not drawn) [Example 9, 8-(trifluoromethyl)-1,2,3,4,12,12a-hexahydro-6H-pyrazino[2,1-c][1,4]benzoxazepine dihydrochloride], for which the Emax was determined as 91.5%.
The figure for `O=C1c2cc(Br)ccc2OCC2CNCCN12` (stereo not drawn) [Example 10, 8-bromo-1,2,3,4,12,12a-hexahydro-6H-pyrazino[2,1-c][1,4]benzoxazepin-6-one hydrochloride] is 107%.
Take `Cc1ccc2c(c1)C(=O)N1CCNCC1CO2` (stereo not drawn) [Example 13, 8-methyl-1,2,3,4,12,12a-hexahydro-6H-pyrazino[2,1-c][1,4]benzoxazepin-6-one hydrochloride]: the Emax was found to be 96.9%.
`COc1ccc2c(c1)C(=O)N1CCNCC1CO2` (stereo not drawn) [Example 31, 8-methoxy-1,2,3,4,12,12a-hexahydro-6H-pyrazino[2,1-c][1,4]benzoxazepin-6-one hydrochloride]: the Emax is 93.8%.
On to `Cc1cccc2c1OCC1CNCCN1C2=O` (stereo not drawn) [Example 37, 10-methyl-1,2,3,4,12,12a-hexahydro-6H-pyrazino[2,1-c][1,4]benzoxazepin-6-one hydrochloride], for which the Emax amounted to 98.3%.
The value for `O=C1c2c(Br)cccc2OCC2CNCCN12` (stereo not drawn) [Example 41, 7-bromo-1,2,3,4,12,12a-hexahydro-6H-pyrazino[2,1-c][1,4]benzoxazepin-6-one hydrochloride] was 96%; that for `O=C1c2c(cccc2C(F)(F)F)OCC2CNCCN12` (stereo not drawn) [Example 42, 7-(trifluoromethyl)-1,2,3,4,12,12a-hexahydro-6H-pyrazino[2,1-c][1,4]benzoxazepin-6-one hydrochloride] was 88.4%.
